Measurements from the supplement of paper PMC10307832.

Tests used:
Assay in all cases: relative viability (nuclei count vs DMSO), 5 days (fraction); higher = more cells survive
[1] = compound: CCN1C(=O)C2=CC(=C(N=C2N(C1=O)C3CC3)N)C(=O)N + O=C(c1cc(Cc2n[nH]c(=O)c3ccccc23)ccc1F)N1CCN(C(=O)C2CC2)CC1 [Olaparib] (partner 8 µM)
How it was run: (§1)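 After 5 days of treatment, lung cancer cells in 1536-well plates were fixed and stained in a single step (final 0.05% Triton X-100, 1% formaldehyde, 1 ug/ml Hoechst) and their nuclei counted on 4× images. Treatment had been applied by pin tool the day after seeding as one drug alone or as a fixed anchor-drug dose with five library-drug doses (not always all listed) in √10 steps. Relative viability is the nuclei count of treated wells divided by that of vehicle wells, and values are medians of duplicate plates.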

[2] = compound: CCN1C(=O)C2=CC(=C(N=C2N(C1=O)C3CC3)N)C(=O)N + Nc1nc2[nH]cc(CCc3ccc(C(=O)N[C@@H](CCC(=O)O)C(=O)O)cc3)c2c(=O)[nH]1 [Pemetrexed] (partner 0.2 µM)
How it was run: as §1

[3] = compound: CCN1C(=O)C2=CC(=C(N=C2N(C1=O)C3CC3)N)C(=O)N + CC(=O)c1c(C)c2cnc(Nc3ccc(N4CCNCC4)cn3)nc2n(C2CCCC2)c1=O [Palbociclib] (partner 0.5 µM)
How it was run: as §1

[4] = compound: CCN1C(=O)C2=CC(=C(N=C2N(C1=O)C3CC3)N)C(=O)N + N=C(N)NC(=N)NCCc1ccccc1 [Phenformin] (partner 250 µM)
How it was run: as §1

[5] = compound: CCN1C(=O)C2=CC(=C(N=C2N(C1=O)C3CC3)N)C(=O)N + CS(=O)(=O)CCNCc1ccc(-c2ccc3ncnc(Nc4ccc(OCc5cccc(F)c5)c(Cl)c4)c3c2)o1 [Lapatinib] (partner 2 µM)
How it was run: as §1

Cell Line	relative viability ([1]; first compound 0.253 µM)	relative viability ([1]; first compound 0.8 µM)	relative viability ([1]; first compound 2.53 µM)	relative viability ([1]; first compound 8 µM)	relative viability ([2]; first compound 0.253 µM)	relative viability ([2]; first compound 0.8 µM)	relative viability ([2]; first compound 2.53 µM)	relative viability ([2]; first compound 8 µM)	relative viability ([3]; first compound 0.253 µM)	relative viability ([3]; first compound 0.8 µM)	relative viability ([3]; first compound 2.53 µM)	relative viability ([3]; first compound 8 µM)	relative viability ([4]; first compound 0.8 µM)	relative viability ([4]; first compound 2.53 µM)	relative viability ([4]; first compound 8 µM)	relative viability ([5]; first compound 0.253 µM)	relative viability ([5]; first compound 0.8 µM)	relative viability ([5]; first compound 2.53 µM)	relative viability ([5]; first compound 8 µM)	relative viability ([4]; first compound 0.253 µM)
HCC-366	0.351	0.361	0.361	0.37	0.167	0.17	0.155	0.163	0.334	0.403	0.378	0.417	0.595	0.589	0.589	1.06	0.966	0.988	1.05	–
HCC-827	0.681	0.679	0.584	0.699	0.259	0.268	0.224	0.264	0.475	0.45	0.395	0.517	0.383	0.382	0.382	0.183	0.219	0.17	0.206	0.439
HOP-62	0.349	0.488	0.41	0.572	0.278	0.353	0.303	0.345	0.516	0.428	0.415	0.474	0.696	0.633	0.77	0.844	1.29	1.01	1.1	0.678
IA-LM	0.92	0.818	0.739	0.845	–	–	–	–	–	–	–	–	–	–	–	0.877	0.902	0.88	0.747	–
LC-2-ad	0.803	0.892	0.736	0.772	0.288	0.298	0.273	0.278	0.424	0.53	0.483	0.496	0.556	0.505	0.587	0.841	0.747	0.943	0.903	0.521
LCLC-97TM1	0.422	0.397	0.318	0.419	0.227	0.177	0.173	0.172	0.272	0.244	0.294	0.181	0.452	0.375	0.407	1.01	–	–	1.05	0.383
LCLC-103H	0.739	0.754	0.74	0.772	0.46	0.461	0.46	0.453	0.446	0.481	0.479	0.456	0.305	0.291	0.364	–	–	–	–	0.341
LK-2	0.641	0.706	0.575	0.596	0.3	0.286	0.303	0.301	0.705	0.565	0.683	0.974	0.591	0.408	0.535	0.89	0.878	0.995	1.09	0.375
LOU-NH91	0.913	0.924	0.92	0.946	0.369	0.377	0.383	0.379	0.542	0.554	0.516	0.513	0.645	0.822	0.694	0.869	0.732	0.83	0.766	0.466
LU99A	0.256	0.285	0.256	0.275	0.174	0.187	0.168	0.184	0.461	0.448	0.419	0.409	0.915	0.77	0.72	1.04	0.984	0.984	1.09	0.778
LXF-289	0.957	1.07	1.01	1.18	0.917	0.889	0.895	0.993	0.616	0.581	0.657	0.588	0.552	0.519	0.538	0.867	0.951	0.938	0.89	0.519
NCI-H441	0.559	0.578	0.499	0.649	0.272	0.246	0.263	0.26	0.22	0.231	0.224	0.244	0.85	0.78	0.833	–	–	–	–	0.762
NCI-H522	0.6	0.678	0.555	0.65	1.1	0.976	0.792	0.926	0.954	0.966	0.794	1.1	0.565	0.705	0.546	–	–	–	–	0.552
NCI-H596	0.662	0.72	0.767	0.693	0.465	0.507	0.573	0.497	–	–	–	–	0.72	0.769	0.628	1.07	1.02	1.09	1.06	0.707
NCI-H727	0.81	0.705	0.539	0.774	–	–	–	–	0.642	0.616	0.605	0.553	0.455	0.459	0.666	0.925	0.69	0.814	0.857	0.625
NCI-H1563	–	–	–	–	0.762	0.799	0.965	0.742	–	–	–	–	0.611	0.651	0.639	0.808	0.91	0.95	0.885	0.653
NCI-H1703	0.702	0.616	0.384	0.379	–	–	–	–	–	–	–	–	–	–	–	1.01	0.946	1.09	1.43	–
NCI-H2342	0.42	0.467	0.421	0.492	0.781	0.746	0.802	0.817	0.549	0.533	0.426	0.461	0.547	0.666	0.532	–	–	–	–	0.556
SW 900	0.84	1.1	0.955	0.928	0.462	0.517	0.52	0.473	0.551	0.558	0.521	0.669	0.625	0.493	0.563	–	–	–	–	0.498
